# Test results published in US12617807B2, “Long lasting opioid reversal using hydrogen peroxide-induced release in blood” (University of Cincinnati, priority 2021, dated 2026).
# Experiments:
# [1] = max solubility in 1×PBS, 20% PEG400; assay type: physicochemical; conditions: 1×PBS with 20% PEG400, aqueous with cosolvent or surfactant or cyclodextrin
# [2] = naloxone in serum of injected mice by LCMS; assay type: in vivo
# Method: After 30 minutes the mice were sacrificed. Blood was harvested and allowed to coagulate. Serum was harvested. A small amount of naloxone-D5 was spiked in, 9 vol of MeOH were added, and cooled for 30 min. After centrifugation the supernatant from each sample was dried and submitted to LCMS. […] FIG. 7 is a graph showing the results of the experiment.
# Another experiment was conducted following the methodology of Example 1, except the mice were sacrificed at 2 hours instead of 30 minutes. FIG. 8 is a graph showing the results of the experiment.
# [3] = tested on: 4-NHE (marker of ROS damage); experiment: ROS changes in blood of mice, ELISA for 4-NHE; conditions: for effect on ROS levels: injected together with morphine
# From the text: This was accomplished using an ELISA assay for 4-NHE that is a marker of ROS damage. See FIG. 9A for an illustration of the process. After a short period, serum was collected and quantification of 4-NHE against spiked blood standards was accomplished using an appropriate antibody.
# [4] = tested on: opioid-induced respiratory failure and death; experiment: rescue of mice from lethal dose of morphine (survival); assay type: in vivo
# Method: Experiments were conducted to determine if NPD-2 can rescue a mouse from opioid-induced respiratory failure and death. Mice were administered a lethal dose of morphine by injection intraperitoneally (IP, 400 mg/kg). […] A survival percentage was calculated and graphed.
# [5] = tested on: renarcotization; experiment: simulated renarcotization, supplemental opioid dose after rescue; conditions: for survival (rescue rate) after initial opioid overdose: initial overdose 400 mg/kg
# [6] = in vivo; cited from earlier work
# [7] = 2 mg/kg IP 15 min after morphine 400 mg/kg IP
# [8] = 4 mg/kg IP 15 min after morphine 400 mg/kg IP
# [9] = 7 mg/kg IP 15 min after morphine 400 mg/kg IP
# [10] = 15 mg/kg IP 15 min after morphine 400 mg/kg IP
# [11] = 6 mg/kg IP 15 min after morphine 400 mg/kg IP
smiles,measurement,setting,value
C=CCN1CCC23c4c5ccc(OCc6ccc(B(O)O)cc6)c4O[C@@H]2C(=O)CC[C@@]3(O)C1C5 (some centres unmarked) [PS-NPD-2],solubility,[1],~50 mg/mL
same,half-life,[2]; inferred from 2 hour naloxone level in mice,potentially longer half-life
same,naloxone concentration in blood/serum,"[2]; mice, 30 minutes after injection, LCMS",higher concentrations of naloxone
same,naloxone in blood compared to naloxone,"[2]; mice, 2 hours after injection, LCMS",more naloxone in mice blood compared to naloxone
same,effect on ROS levels,[3],reduces the ROS levels back to saline treated levels
same,# dead,[4]; [7],8
same,Survival percent,[4]; [7],0%
same,Survival rate,[4]; [7],0
same,# dead,[4]; [8],1
same,Survival percent,[4]; [8],0%
same,Survival rate,[4]; [8],0
same,# dead,[4]; [9],4
same,Survival percent,[4]; [9],0%
same,Survival rate,[4]; [9],0
same,# dead,[4]; [10],1
same,Survival percent,[4]; [10],87.5%
same,Survival rate,[4]; [10],0.875
same,survival (rescue rate) after initial opioid overdose,[5]; 15 mg/kg,80%
same,number of surviving animals after supplemental opioid,"[5]; prodrug 15 mg/kg vs naloxone 6 mg/kg, supplemental opioid dose 25 mg/kg, N=8 each group",higher number of surviving animals than naloxone
"CN1CC[C@]23c4c5ccc(O)c4O[C@H]2[C@@H](O)C=C[C@H]3[C@H]1C5 [morphine, reference compound]",increase of ROS (4-NHE),"[3]; mouse serum, compound alone",more than 10 fold
same,# dead,[4]; morphine 400 mg/kg IP alone,2
same,Survival percent,[4]; morphine 400 mg/kg IP alone,0%
same,Survival rate,[4]; morphine 400 mg/kg IP alone,0
"C=CCN1CC[C@]23c4c5ccc(O)c4O[C@H]2C(=O)CC[C@@]3(O)[C@H]1C5 [naloxone, reference compound]",effect on ROS levels,[3],reduces the ROS levels back to saline treated levels
same,# dead,[4]; [11],1
same,Survival percent,[4]; [11],75%
same,Survival rate,[4]; [11],0.75
same,metabolic stability,[6],metabolically instable
same,survival (rescue rate) after initial opioid overdose,[5]; 6 mg/kg,80%
